Assay results: patent US9156853B2, “AKT inhibitor compounds for treatment of cancer” (ALMAC DISCOVERY LIMITED, priority 2012, dated 2015)
Where a name gives a salt, the structure may show the parent alone.

Key:
[1] = test system: pAKT (Ser473) in PC3 cells; experiment: Inhibition of pAKT in PC3 cells; assay type: cell-based; settings: Homo sapiens, PC-3, 24 h incubation, read-out: inhibition of pAKT in PC3 cell lines, IC50
Description: Analysis of Compound Effects on AKT Signalling Pathways: Inhibition of pAKT in PC3 Cells
PC3 cells were seeded overnight in 96 well plates followed by serum starvation for 4 h. Increasing concentrations of AKT inhibitor, in complete medium (RPMI 1640), were added to the cells and incubated for a further 24 h.
The cells were fixed in paraformaldehyde, permeabilised and blocked in BSA, followed by incubation with pAKT (Ser473) and total AKT antibody overnight (R&D Systems). Secondary antibody mixture was added, followed by a combination of fluorescent substrates added for a final incubation.
Fluorescent intensities for each antibody were read at 540/600 nm and 360/450 nm respectively on a Synergy 4 plate reader. The percentage change in fluorescent intensity was plotted against log concentration of inhibitor; to generate IC50 values (GraphPad Prism).

[2] = target: T1, AKT3 (Homo sapiens, UniProt Q9Y243); experiment: AKT Kinase Assay (IMAP fluorescent polarisation), AKT3 isoform; assay type: biochemical; settings: for IC50: activated AKT3, FAM Crosstide substrate; for potency against AKT3 compared with the comparator compound: compared with the non-hydroxylated Compound A, F or L
T1 construct: purchased SignalChem
T1 sequence (Q9Y243 whole entry, canonical isoform): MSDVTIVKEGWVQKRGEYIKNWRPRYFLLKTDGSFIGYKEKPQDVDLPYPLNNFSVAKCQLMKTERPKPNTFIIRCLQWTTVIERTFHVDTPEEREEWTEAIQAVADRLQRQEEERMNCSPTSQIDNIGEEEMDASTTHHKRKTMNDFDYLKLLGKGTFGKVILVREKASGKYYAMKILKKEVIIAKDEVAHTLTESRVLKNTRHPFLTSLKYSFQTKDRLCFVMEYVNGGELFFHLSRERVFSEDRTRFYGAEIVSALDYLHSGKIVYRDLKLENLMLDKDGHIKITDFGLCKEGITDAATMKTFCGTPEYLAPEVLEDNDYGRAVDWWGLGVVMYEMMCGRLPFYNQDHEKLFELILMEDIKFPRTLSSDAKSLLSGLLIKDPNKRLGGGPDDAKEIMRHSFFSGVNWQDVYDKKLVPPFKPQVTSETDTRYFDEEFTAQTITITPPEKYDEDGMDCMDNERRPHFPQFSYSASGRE
Description: (§1) Testing of the compounds was performed using an AKT Kinase Assay:
(§2) Activated AKT isoforms 1, 2 and 3 were assayed utilising a 5′ FAM Crosstide (Seq. GRPRTSSFAEG-OH). The extent of kinase phosphorylation was determined by fluorescent polarisation using IMAP progressive binding reagent, which introduces binding beads which allow the reagent to specifically bind to phosphate residues via covalent co-ordination complex bonds.
(§3) iMAP binding solution stops Crosstide/kinase interaction and specifically binds phosphorylated substrates. The degree of phosphorylation is determined by fluorescent polarisation (excitation 485 nm; emission 528 nm) or the reduction in speed of rotation of the excited substrate.
(§4) The following materials were used in the assay: • a) Activated AKT isoforms (SignalChem.) dissolved in Complete Reaction buffer at a predetermined concentration selected so that the assay was carried out in the linear range. • b) AKT substrate peptide: FAM Crosstide (R7110) Molecular Devices, diluted in complete reaction buffer. • c) iMAP Progressive Screening Express Kit (R8127) Molecular Devices • d) Complete Reaction Buffer containing 0.1% BSA, 10 mM Tris-HCl, 10 mM MgCl2, 0.05% NaN3 and 0.01% phosphate free BSA, 1 mM DTT • e) Progressive Binding Solution containing 75% Buffer A, 25% Buffer B and low volume Binding Reagent which contains the binding entity for the assay • f) ATP diluted in complete reaction buffer • g) Black polystyrene 384 well assay plates (Nunc). • h) Biotek Synergy 4 Hybrid Plate reader.
(§5) 5 μl of test compound was dissolved in DMSO (Sigma Aldrich) and serially diluted in complete reaction buffer to give a fourteen point half log dose response and plated into 384 well black plates. The compound was incubated at room temperature with activated AKT isoform (5 μl) at the predetermined concentration, for 45 min.
(§6) 2.5 μl of ATP solution mixed with 2.5 μl of AKT substrate peptide (FAM Crosstide (R7110) Molecular Devices) were dispensed into each well and the plate centrifuged at 1000 rpm for 20 seconds to ensure homogenous mixing of reagents. The reaction mix was incubated in the dark for 1 h at room temperature.
(§7) The kinase reaction was stopped by the addition of Progressive Binding Solution and the mixture allowed to equilibrate for 1 h in the dark, at room temperature.
(§8) The fluorescent polarisation generated in each well was determined using a […] Synergy 4 Hybrid plate reader. In brief, each reaction solution was excited at 485 nm with the emission measured at 528 nm in both the parallel and perpendicular pathway.
(§9) The polarisation value generated in each well was calculated by Gen5 software (Biotek) and the % inhibition of kinase activity compared to vehicle control was calculated via GraphPad Prism. IC50 values for each compound were calculated by non-linear regression analysis using Prism software.
(§10) All plates were internally controlled by two methods. Firstly, by calculating the signal:noise ratio; based on kinase polarisation without inhibitor and polarisation generated by complete reaction buffer in the absence of activated kinase. Secondly by determining IC50 values generated by known inhibitors of the AKT isoforms.
(§11) The data was analysed using GraphPad Prism, with IC50 values generated using non-linear regression of the data set.

[3] = target: T2, AKT2 (Homo sapiens, UniProt P31751); experiment: AKT Kinase Assay (IMAP fluorescent polarisation), AKT2 isoform; assay type: biochemical; settings: for IC50: activated AKT2, FAM Crosstide substrate; for potency against AKT2 compared with the comparator compound: compared with the non-hydroxylated Compound A, F or L
T2 construct: purchased SignalChem
T2 sequence (P31751 whole entry, canonical isoform): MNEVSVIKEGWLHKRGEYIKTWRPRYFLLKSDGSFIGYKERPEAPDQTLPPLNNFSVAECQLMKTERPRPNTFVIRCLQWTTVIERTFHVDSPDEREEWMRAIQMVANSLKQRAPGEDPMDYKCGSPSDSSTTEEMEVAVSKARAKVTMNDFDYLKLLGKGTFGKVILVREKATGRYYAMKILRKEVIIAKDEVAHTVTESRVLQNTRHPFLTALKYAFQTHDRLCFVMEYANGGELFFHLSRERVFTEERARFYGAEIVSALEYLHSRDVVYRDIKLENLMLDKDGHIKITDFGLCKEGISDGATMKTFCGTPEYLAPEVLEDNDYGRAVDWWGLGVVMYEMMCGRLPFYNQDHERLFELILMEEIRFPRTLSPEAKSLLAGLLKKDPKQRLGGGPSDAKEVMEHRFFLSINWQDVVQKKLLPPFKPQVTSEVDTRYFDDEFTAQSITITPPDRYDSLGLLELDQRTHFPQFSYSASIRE
Description: as §1, §2, §3, §4, §5, §6, §7, §8, §9, §10, §11

[4] = target: T3, AKT1 (Homo sapiens, UniProt P31749); experiment: AKT Kinase Assay (IMAP fluorescent polarisation), AKT1 isoform; assay type: biochemical; settings: for IC50: activated AKT1, FAM Crosstide substrate; for potency against AKT1 compared with the comparator compound: compared with the non-hydroxylated Compound A, F or L
T3 construct: purchased SignalChem
T3 sequence (P31749 whole entry, canonical isoform): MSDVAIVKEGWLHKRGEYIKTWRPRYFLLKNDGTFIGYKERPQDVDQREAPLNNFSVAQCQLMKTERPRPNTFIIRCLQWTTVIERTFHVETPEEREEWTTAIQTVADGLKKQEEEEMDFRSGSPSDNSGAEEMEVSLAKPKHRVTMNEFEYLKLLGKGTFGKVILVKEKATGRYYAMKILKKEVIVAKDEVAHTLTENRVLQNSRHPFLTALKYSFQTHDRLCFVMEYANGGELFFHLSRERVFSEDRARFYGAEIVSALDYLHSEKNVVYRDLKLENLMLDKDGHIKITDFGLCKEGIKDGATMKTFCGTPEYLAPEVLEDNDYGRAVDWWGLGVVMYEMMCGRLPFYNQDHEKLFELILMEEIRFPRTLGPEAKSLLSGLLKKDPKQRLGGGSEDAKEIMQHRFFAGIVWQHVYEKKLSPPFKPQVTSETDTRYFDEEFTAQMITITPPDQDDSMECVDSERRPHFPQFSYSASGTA
Description: as §1, §2, §3, §4, §5, §6, §7, §8, §9, §10, §11

| SMILES | IC50 [1] [µM] | IC50 [2] [µM] | IC50 [3] [µM] | potency against AKT2 compared with the comparator compound [3] | IC50 [4] [µM] | potency against AKT3 compared with the comparator compound [2] | potency against AKT1 compared with the comparator compound [4] | selectivity for AKT2 over AKT1 and AKT3 compared with compound A ([3]; compared with compound A) |
| --- | --- | --- | --- | --- | --- | --- | --- | --- |
| N[C@]1(c2ccc(-c3oc4ncn(CC(F)(F)F)c(=O)c4c3-c3ccccc3)cc2)C[C@@H](O)C1 [Compound 2, 6-(4-((1r,3r)-1-Amino-3-hydroxycyclobutyl)phenyl)-5-phenyl-3-(2,2,2-trifluoroethyl)furo[2,3-d]pyrimidin-4(3H)-one. HCl] | ≤ 0.5 | > 6 | ≤ 0.02 | improved potency | > 1.5 |  |  |  |
| Cn1c(-c2ccc([C@]3(N)C[C@@](C)(O)C3)cc2)c(-c2ccccc2)c2c(=O)n(CC(F)(F)F)cnc21 [Compound 10, 6-(4-((1s,3s)-1-Amino-3-hydroxy-3-methylcyclobutyl)phenyl)-7-methyl-5-phenyl-3-(2,2,2-trifluoroethyl)-3H-pyrrolo[2,3-d]pyrimidin-4(7H)-one.HCl] |  | 1 to 6 | ≤ 0.02 | improved potency | 0.3 to 1.5 | improved potency |  |  |
| N[C@]1(c2ccc(-c3sc4ncn(CC(F)(F)F)c(=O)c4c3-c3ccccc3)cc2)C[C@@H](O)C1 [Compound 12, 6-(4-((1r,3r)-1-Amino-3-hydroxycyclobutyl)phenyl)-5-phenyl-3-(2,2,2-trifluoroethyl)thieno[2,3-d]pyrimidin-4(3H)-one.HCl] |  | 1 to 6 | 0.02 to 0.1 | improved potency | 0.3 to 1.5 | improved potency |  |  |
| C[C@]1(O)C[C@@](N)(c2ccc(-c3oc4ncn(CC(F)(F)F)c(=O)c4c3-c3ccncc3)cc2)C1 [Compound 13, 6-(4-((1r,3r)-1-Amino-3-hydroxy-3-methylcyclobutyl)phenyl)-5-(pyridin-4-yl)-3-(2,2,2-trifluoroethyl)furo[2,3-d]pyrimidin-4(3H)-one.TFA] |  | > 6 | ≤ 0.02 | improved potency | > 1.5 |  |  | greater selectivity |
| Cn1c(-c2ccc([C@]3(N)C[C@](C)(O)C3)cc2)c(-c2cccnc2)c2c(=O)n(CC(F)(F)F)cnc21 [Compound 16, 6-(4-((1r,3r)-1-Amino-3-hydroxy-3-methylcyclobutyl)phenyl)-7-methyl-5-(pyridin-3-yl)-3-(2,2,2-trifluoroethyl)-3H-pyrrolo[2,3-d]pyrimidin-4(7H)-one.TFA] |  | > 6 | > 0.1 |  | > 1.5 |  |  |  |
| Cn1c(-c2ccc([C@]3(N)C[C@](C)(O)C3)cc2)c(-c2ccncc2)c2c(=O)n(CC(F)(F)F)cnc21 [Compound 17, 6-(4-((1r,3r)-1-Amino-3-hydroxy-3-methylcyclobutyl)phenyl)-7-methyl-5-(pyridin-4-yl)-3-(2,2,2-trifluoroethyl)-3H-pyrrolo[2,3-d]pyrimidin-4(7H)-one.HCl] |  | > 6 | > 0.1 |  | > 1.5 |  |  |  |
| C[C@]1(O)C[C@](N)(c2ccc(-c3sc4ncn(CC(F)(F)F)c(=O)c4c3-c3ccccn3)cc2)C1 [Compound 19, 6-(4-((1s,3s)-1-Amino-3-hydroxy-3-methylcyclobutyl)phenyl)-5-(pyridin-2-yl)-3-(2,2,2-trifluoroethyl)thieno[2,3-d]pyrimidin-4(3H)-one.HCl] |  | > 6 | > 0.1 |  | > 1.5 |  |  |  |
| Cn1c(-c2ccc(C3(N)CCC3)cc2)c(-c2ccccc2)c2c(=O)n(CC(F)(F)F)cnc21 [Compound L, reference compound] |  | > 6 | 0.02 to 0.1 |  | 0.3 to 1.5 |  |  |  |

The next lines start with the values.

| IC50 [1] [µM] | IC50 [2] [µM] | IC50 [3] [µM] | potency against AKT2 compared with the comparator compound [3] | IC50 [4] [µM] | potency against AKT3 compared with the comparator compound [2] | potency against AKT1 compared with the comparator compound [4] | selectivity for AKT2 over AKT1 and AKT3 compared with compound A ([3]; compared with compound A) | SMILES |
| --- | --- | --- | --- | --- | --- | --- | --- | --- |
|  | 1 to 6 | 0.02 to 0.1 | improved potency | ≤ 0.3 | improved potency | improved potency |  | C[C@]1(O)C[C@](N)(c2ccc(-c3sc4ncn(CC(F)(F)F)c(=O)c4c3-c3ccccc3)cc2)C1 [Compound 8, 6-(4-((1s,3s)-1-Amino-3-hydroxy-3-methylcyclobutyl)phenyl)-5-phenyl-3-(2,2,2-trifluoroethyl)thieno[2,3-d]pyrimidin-4(3H)-one.HCl] |
|  | 1 to 6 | ≤ 0.02 | improved potency | ≤ 0.3 | improved potency | improved potency |  | N[C@]1(c2ccc(-c3sc4ncn(CC(F)(F)F)c(=O)c4c3-c3ccccc3)cc2)C[C@H](O)C1 [Compound 9, 6-(4-((1s,3s)-1-Amino-3-hydroxycyclobutyl)phenyl)-5-phenyl-3-(2,2,2-trifluoroethyl)thieno[2,3-d]pyrimidin-4(3H)-one.HCl] |
|  | > 6 | 0.02 to 0.1 |  | > 1.5 |  |  |  | Cn1c(-c2ccc([C@]3(N)C[C@H](O)C3)cc2)c(-c2ccccc2)c2c(=O)n(CC(F)(F)F)cnc21 [Compound 11, 6-(4-((1r,3r)-1-Amino-3-hydroxycyclobutyl)phenyl)-7-methyl-5-phenyl-3-(2,2,2-trifluoroethyl)-3H-pyrrolo[2,3-d]pyrimidin-4(7H)-one.HCl] |
|  | > 6 | > 0.1 |  | > 1.5 |  |  |  | C[C@]1(O)C[C@@](N)(c2ccc(-c3oc4ncn(CC(F)(F)F)c(=O)c4c3-c3ccccn3)cc2)C1 [Compound 14, 6-(4-((1r,3r)-1-Amino-3-hydroxy-3-methylcyclobutyl)phenyl)-5-(pyridin-2-yl)-3-(2,2,2-trifluoroethyl)furo[2,3-d]pyrimidin-4(3H)-one.HCl] |
|  | > 6 | > 0.1 |  | > 1.5 |  |  |  | Cn1c(-c2ccc([C@]3(N)C[C@](C)(O)C3)cc2)c(-c2ccccn2)c2c(=O)n(CC(F)(F)F)cnc21 [Compound 15, 6-(4-((1r,3r)-1-Amino-3-hydroxy-3-methylcyclobutyl)phenyl)-7-methyl-5-(pyridin-2-yl)-3-(2,2,2-trifluoroethyl)-3H-pyrrolo[2,3-d]pyrimidin-4(7H)-one.TFA] |
|  | > 6 | > 0.1 |  | > 1.5 |  |  |  | Cn1c(-c2ccc([C@]3(N)C[C@@](C)(O)C3)cc2)c(-c2ccccn2)c2c(=O)n(CC(F)(F)F)cnc21 [Compound 18, 6-(4-((1 s,3s)-1-Amino-3-hydroxy-3-methylcyclobutyl)phenyl)-7-methyl-5-(pyridin-2-yl)-3-(2,2,2-trifluoroethyl)-3H-pyrrolo[2,3-d]pyrimidin-4(7H)-one.HCl] |
|  | > 6 | > 0.1 |  | > 1.5 |  |  |  | C[C@]1(O)C[C@@](N)(c2ccc(-c3sc4ncn(CC(F)(F)F)c(=O)c4c3-c3ccccn3)cc2)C1 [Compound 20, 6-(4-((1r,3r)-1-Amino-3-hydroxy-3-methylcyclobutyl)phenyl)-5-(pyridin-2-yl)-3-(2,2,2-trifluoroethyl)thieno[2,3-d]pyrimidin-4(3H)-one.HCl] |
|  | > 6 | > 0.1 |  | 0.3 to 1.5 |  |  |  | NC1(c2ccc(-c3sc4ncn(CC(F)(F)F)c(=O)c4c3-c3ccccc3)cc2)CCC1 [Compound F, reference compound] |
